Columns and labels:
[1] = 'click-on' reaction with a representative alkyne-derivatized molecule, fluorescence emission measurement; format: physicochemical; conditions: azidocoumarin free vs. attached to the dendrimer
Procedure: The fluorogenic properties of the small molecule and dendrimer coumarin reporters were first evaluated by performing the ‘click’ reaction with a representative alkyne-derivatized molecule, 3-(4-(prop-2-yn-1-yloxy)phenyl)propionic acid at room temperature for 12 hours (Scheme 2). […] However, after attaching to the dendrimer, the absorbance of azidocoumarin has red-shifted 20 nm (λmax Ex 340 vs. 360 nm). Following ligation with the alkyne-derivatized molecule, the G5-Coumarin 3 increased its fluorescence 21-fold (FIG. 1). […] This difference in fluorescent enhancement was primarily attributable to the decrease in the background fluorescence intensity of azidocoumarin on the dendrimer reporter. The structure-property relationships are still under investigation.
Experimental Procedure of “Click-on and Probe” Reaction G5-coumarin 3 was dissolved in Cu(II) sulfate (10 mol % per COUlnarin, 1 mg/mL H20 solution) solution. 3-(4-(prop-2-yn-1-yloxy)phenyl)propanoic acid (5 per coumarin, 5 mg/mL DMSO solution) were added. The reaction mixture was incubated at room temperature for 12 h before diluted in H2O for fluorescent emission measurement. […] The excitation and emission spectra were recorded after dilution using H2O.

KB cells = assay: detection of EdU incorporated into newly synthesized DNA of KB cells by 'click' ligation and flow cytometry; format: cell-based
From the text: The efficacy of the fluorogenic reporters in monitoring metabolite flux in a typical cell culture system was next evaluated. 5-ethynyl-2′-deoxyuridine (EdU), a nucleoside analogue, incorporation into newly synthesized DNA (Scheme 2), a common molecular biology technique to profile cellular proliferation, was monitored (see, e.g., Hahn, C. G.; Han, L. Y.; Rawson, N. E.; Mirza, N.; Borgmann-Winter, K.; Lenox, R. H.; Arnold, S. E. J Comp Neurol 2005, 483, 154; Salic, A.; Mitchison, T. J. P Natl Acad Sci USA 2008, 105, 2415; Limsirichaikul, S.; Niimi, A.; Fawcett, H.; Lehmann, A.; Yamashita, S.; Ogi, T. Nucleic Acids Res 2009, 37; Yamakoshi, H.; Dodo, K.; Okada, M.; Ando, J.; Palonpon, A.; Fujita, K.; Kawata, S.; Sodeoka, M. J Am Chem Soc 2011, 133, 6102). Traditionally, 5-bromo-2′-deoxyuridine (BrdU), an antibody-specific nucleoside analogue, has been used to monitor DNA synthesis but is limited by the complicated processing and signal variability (see, e.g., Declercq, E.; Descamps, J.; Balzarini, J.; Giziewicz, J.; Barr, P. J.; Robins, M. J. J Med Chem 1983, 26, 661). EdU is a DNA base modified with a terminal alkyne group replacing the methyl group in the 5 position and is readily incorporated into newly synthesized DNA during cell proliferation. […] To compare the detection efficacy of the different fluorogenic reporters, the DNA-incorporated EdU molecules were ligated with either the small molecule 3-azido-7-hydroxy coumarin or the dendrimer-coumarin reporters (G5-Coumarin 3) using ‘click’ reactions and then analyzed by flow cytometry. […] Similar to other ‘click’ reaction detection methods with traditional azide fluorescent reporters, detection of EdU incorporation into DNA with the fluorogenic dendrimer reporters retain the accuracy of the traditional assays but reduces background fluorescence greatly improving assay throughput.
EdU Labeling and Staining of Cultured Cells. […] Fluorescence signal intensities from the samples were measured using an Accuri C6 Flow Cytometer (Ann Arbor, Mich.) and data were analyzed using FlowJo 8.7 software (TreeStar).

λmax Ex [1]: 340 nm
Structure (SMILES): [N-]=[N+]=Nc1cc2ccc(O)cc2oc1=O [3-azido-7-hydroxy coumarin]
fluorescence intensity after standard wash steps (KB cells; KB cells with EdU, after standard wash steps): decreased
cell positive rate before wash steps (KB cells; KB cells with EdU, no washes): much higher degree of cell positive rate
fluorescent intensity after ligation with DNA-incorporated EdU (KB cells; KB cells, 10 μM EdU for 5 hours, reporters at 10 nM and 100 nM): increases in fluorescent intensity

— patent publication US20150309042A1, “FLUOROGENIC DENDRIMER REPORTERS AND RELATED METHODS OF USE” (The Regents of the University of Michigan, priority 2013, published 2015)
